Measured values from ChEMBL document CHEMBL3991601, “The target landscape of clinical kinase drugs” (Science, 2017).
Calls of active or inactive are those of the source. For most assays here, no stated cut-off is given here; in the data, actives have a measured Kd and inactives only a lower limit.

Legend:
LIM domain kinase 2 = LIM domain kinase 2 (Homo sapiens, UniProt P53671)
[1] = biological target: T1, Ferrochelatase, mitochondrial (Homo sapiens, UniProt P22830)
T1 sequence (P22830 whole entry): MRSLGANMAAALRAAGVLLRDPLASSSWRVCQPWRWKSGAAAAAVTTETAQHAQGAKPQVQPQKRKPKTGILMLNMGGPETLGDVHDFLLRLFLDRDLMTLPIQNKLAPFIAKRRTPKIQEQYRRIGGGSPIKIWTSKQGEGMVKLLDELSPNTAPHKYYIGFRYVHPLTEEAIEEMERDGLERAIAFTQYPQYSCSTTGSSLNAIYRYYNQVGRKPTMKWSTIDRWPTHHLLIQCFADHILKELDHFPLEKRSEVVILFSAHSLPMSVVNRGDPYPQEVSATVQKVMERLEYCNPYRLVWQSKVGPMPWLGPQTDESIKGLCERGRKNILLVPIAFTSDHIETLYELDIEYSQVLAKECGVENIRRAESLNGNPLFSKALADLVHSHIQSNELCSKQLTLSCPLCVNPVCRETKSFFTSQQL

[2] = biological target: T2, Very long-chain specific acyl-CoA dehydrogenase, mitochondrial (Homo sapiens, UniProt P49748)
T2 sequence (P49748 whole entry): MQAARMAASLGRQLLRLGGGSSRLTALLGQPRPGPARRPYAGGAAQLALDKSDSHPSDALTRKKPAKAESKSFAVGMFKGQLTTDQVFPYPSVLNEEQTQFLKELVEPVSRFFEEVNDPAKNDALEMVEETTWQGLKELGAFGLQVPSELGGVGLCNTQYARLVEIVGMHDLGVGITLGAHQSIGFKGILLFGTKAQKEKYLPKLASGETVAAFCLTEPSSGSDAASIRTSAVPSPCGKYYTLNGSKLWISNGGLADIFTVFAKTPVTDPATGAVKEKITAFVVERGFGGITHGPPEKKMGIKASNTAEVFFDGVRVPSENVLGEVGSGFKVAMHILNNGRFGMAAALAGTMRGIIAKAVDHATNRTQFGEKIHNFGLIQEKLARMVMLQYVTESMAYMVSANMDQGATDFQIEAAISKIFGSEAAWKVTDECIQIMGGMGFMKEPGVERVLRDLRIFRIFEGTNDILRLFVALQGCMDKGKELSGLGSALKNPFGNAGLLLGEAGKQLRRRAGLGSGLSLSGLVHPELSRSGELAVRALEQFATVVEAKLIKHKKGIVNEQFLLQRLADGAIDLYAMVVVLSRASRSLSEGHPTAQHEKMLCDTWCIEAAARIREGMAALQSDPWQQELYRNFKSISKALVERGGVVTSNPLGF

[3] = biological target: T3, Mitogen-activated protein kinase kinase kinase 5 (Homo sapiens, UniProt Q99683)
T3 sequence (Q99683 whole entry): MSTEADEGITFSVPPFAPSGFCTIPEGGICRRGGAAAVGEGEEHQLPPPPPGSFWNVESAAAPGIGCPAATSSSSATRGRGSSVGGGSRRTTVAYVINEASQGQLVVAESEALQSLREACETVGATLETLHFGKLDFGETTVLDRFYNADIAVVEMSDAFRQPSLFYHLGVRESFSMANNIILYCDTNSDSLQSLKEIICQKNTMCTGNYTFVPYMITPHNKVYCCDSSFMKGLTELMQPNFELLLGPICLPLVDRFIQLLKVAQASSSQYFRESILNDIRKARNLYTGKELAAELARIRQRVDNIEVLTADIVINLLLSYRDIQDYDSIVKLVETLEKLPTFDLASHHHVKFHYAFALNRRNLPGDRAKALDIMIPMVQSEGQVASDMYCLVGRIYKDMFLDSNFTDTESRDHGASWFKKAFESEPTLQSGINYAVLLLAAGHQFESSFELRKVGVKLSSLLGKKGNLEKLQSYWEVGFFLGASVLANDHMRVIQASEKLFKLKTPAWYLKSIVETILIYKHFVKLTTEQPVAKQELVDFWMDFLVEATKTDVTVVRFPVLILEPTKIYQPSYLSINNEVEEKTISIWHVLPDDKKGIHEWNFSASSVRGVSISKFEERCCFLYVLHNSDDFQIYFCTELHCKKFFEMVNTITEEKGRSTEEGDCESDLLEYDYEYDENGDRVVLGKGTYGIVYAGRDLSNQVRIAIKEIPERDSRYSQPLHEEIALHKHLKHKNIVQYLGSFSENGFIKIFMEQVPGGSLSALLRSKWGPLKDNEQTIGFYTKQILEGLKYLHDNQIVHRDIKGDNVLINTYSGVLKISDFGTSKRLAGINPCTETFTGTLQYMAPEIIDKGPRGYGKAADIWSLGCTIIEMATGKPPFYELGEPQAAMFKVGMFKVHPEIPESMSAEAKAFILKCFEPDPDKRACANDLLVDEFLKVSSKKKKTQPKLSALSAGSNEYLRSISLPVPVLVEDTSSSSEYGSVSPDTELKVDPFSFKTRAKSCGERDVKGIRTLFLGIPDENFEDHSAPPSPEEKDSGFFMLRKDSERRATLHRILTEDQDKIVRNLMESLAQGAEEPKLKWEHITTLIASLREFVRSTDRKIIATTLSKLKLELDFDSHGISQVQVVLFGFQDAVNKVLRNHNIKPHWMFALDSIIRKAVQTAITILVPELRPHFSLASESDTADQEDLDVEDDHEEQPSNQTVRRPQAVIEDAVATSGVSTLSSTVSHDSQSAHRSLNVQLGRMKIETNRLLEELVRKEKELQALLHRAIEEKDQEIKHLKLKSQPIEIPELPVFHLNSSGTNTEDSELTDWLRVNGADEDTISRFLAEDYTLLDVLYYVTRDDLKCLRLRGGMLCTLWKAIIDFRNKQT

[4] = biological target: Proto-oncogene tyrosine-protein kinase Src (Homo sapiens, UniProt P12931)
Sequence of Proto-oncogene tyrosine-protein kinase Src (P12931 2-536 limits assumed): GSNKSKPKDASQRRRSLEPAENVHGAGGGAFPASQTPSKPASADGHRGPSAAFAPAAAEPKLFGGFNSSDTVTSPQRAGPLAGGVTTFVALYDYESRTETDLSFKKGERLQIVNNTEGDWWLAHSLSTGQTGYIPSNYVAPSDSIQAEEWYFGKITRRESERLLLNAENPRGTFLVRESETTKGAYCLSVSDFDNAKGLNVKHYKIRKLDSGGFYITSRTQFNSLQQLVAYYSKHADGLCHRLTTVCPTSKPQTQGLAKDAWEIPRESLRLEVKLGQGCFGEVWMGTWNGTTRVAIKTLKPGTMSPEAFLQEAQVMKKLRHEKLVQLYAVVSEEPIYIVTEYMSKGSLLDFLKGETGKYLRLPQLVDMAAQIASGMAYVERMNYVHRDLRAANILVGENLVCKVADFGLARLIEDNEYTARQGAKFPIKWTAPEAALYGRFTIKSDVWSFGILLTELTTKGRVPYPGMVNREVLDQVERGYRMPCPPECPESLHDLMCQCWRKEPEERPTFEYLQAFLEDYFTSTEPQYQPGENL

Sequence of LIM domain kinase 2 (P53671 whole entry, the tested form may be a part): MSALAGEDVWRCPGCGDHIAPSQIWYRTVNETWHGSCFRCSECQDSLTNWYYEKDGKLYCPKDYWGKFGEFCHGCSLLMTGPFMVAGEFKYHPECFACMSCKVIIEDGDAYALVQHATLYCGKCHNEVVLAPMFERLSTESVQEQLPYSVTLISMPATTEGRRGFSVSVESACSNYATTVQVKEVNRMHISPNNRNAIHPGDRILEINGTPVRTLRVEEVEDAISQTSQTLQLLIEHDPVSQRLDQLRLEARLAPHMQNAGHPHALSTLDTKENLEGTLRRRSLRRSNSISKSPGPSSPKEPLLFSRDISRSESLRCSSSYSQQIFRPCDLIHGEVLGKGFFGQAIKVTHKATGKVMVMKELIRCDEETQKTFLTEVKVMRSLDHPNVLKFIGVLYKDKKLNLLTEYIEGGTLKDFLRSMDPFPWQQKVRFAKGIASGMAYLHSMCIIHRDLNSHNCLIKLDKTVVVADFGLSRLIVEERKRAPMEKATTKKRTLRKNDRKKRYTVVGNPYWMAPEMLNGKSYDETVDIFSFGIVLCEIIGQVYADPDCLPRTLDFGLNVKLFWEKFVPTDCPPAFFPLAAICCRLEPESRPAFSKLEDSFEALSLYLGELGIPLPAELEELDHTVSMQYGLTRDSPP

O=c1sn(-c2cccc3ccccc23)c(=O)n1Cc1ccccc1 [TIDEGLUSIB]
Kd (LIM domain kinase 2): > 30 µM (inactive) | Kd [1]: > 30 µM (inactive) | Kd [2]: > 30 µM (inactive) | Kd [3]: > 30 µM (inactive) | Kd [4]: > 30 µM (inactive)

Cn1cc(-c2ccc3nnc(C(F)(F)c4ccc5ncccc5c4)n3n2)cn1 [JNJ-38877605]
Kd (LIM domain kinase 2): > 30 µM (inactive) | Kd [1]: > 30 µM (inactive) | Kd [2]: > 30 µM (inactive) | Kd [3]: > 30 µM (inactive) | Kd [4]: > 30 µM (inactive)

Cn1ncc(Cl)c1-c1cc(C(=O)N[C@H](CN)Cc2cccc(F)c2)sc1Cl [AFURESERTIB]
Kd (LIM domain kinase 2): > 30 µM (inactive) | Kd [1]: > 30 µM (inactive) | Kd [2]: > 30 µM (inactive) | Kd [3]: > 30 µM (inactive) | Kd [4]: > 30 µM (inactive)

CNS(=O)(=O)Nc1nccc(Cc2c(C)c3ccc(Oc4ncccn4)cc3oc2=O)c1F [AVUTOMETINIB]
Kd (LIM domain kinase 2): > 30 µM (inactive) | Kd [1]: > 30 µM (inactive) | Kd [2]: > 30 µM (inactive) | Kd [3]: > 30 µM (inactive) | Kd [4]: > 30 µM (inactive)

CN(C)C(=O)c1cc2cnc(Nc3ccc(N4CCNCC4)cn3)nc2n1C1CCCC1 [RIBOCICLIB]
Kd (LIM domain kinase 2): > 30 µM (inactive) | Kd [1]: 12.3 µM | Kd [2]: > 30 µM (inactive) | Kd [3]: > 30 µM (inactive) | Kd [4]: > 30 µM (inactive)

CCc1cnn2c(NCc3ccc[n+]([O-])c3)cc(N3CCCC[C@H]3CCO)nc12 [DINACICLIB]
Kd (LIM domain kinase 2): > 30 µM (inactive) | Kd [1]: > 30 µM (inactive) | Kd [2]: > 30 µM (inactive) | Kd [3]: > 30 µM (inactive) | Kd [4]: > 30 µM (inactive)

COc1ccc(-c2ccc3c(N4CCOC[C@@H]4C)nc(N4CCOC[C@@H]4C)nc3n2)cc1CO [AZD-8055]
Kd (LIM domain kinase 2): > 30 µM (inactive) | Kd [1]: 6.9 µM (active) | Kd [2]: > 30 µM (inactive) | Kd [3]: > 30 µM (inactive) | Kd [4]: > 30 µM (inactive)

COc1cc2nccc(Oc3ccc(NC(=O)Nc4cc(C)on4)c(Cl)c3)c2cc1OC [TIVOZANIB]
Kd (LIM domain kinase 2): > 30 µM (inactive) | Kd [1]: > 30 µM (inactive) | Kd [2]: > 30 µM (inactive) | Kd [3]: > 30 µM (inactive)

C[C@@H](Nc1cc(F)cc(F)c1)c1cc(C(=O)N(C)C)cc2c(=O)cc(N3CCOCC3)oc12 [AZD-8186]
Kd (LIM domain kinase 2): > 30 µM (inactive) | Kd [1]: > 30 µM (inactive) | Kd [2]: > 30 µM (inactive) | Kd [3]: > 30 µM (inactive) | Kd [4]: > 30 µM (inactive)

CNC(=O)CN1CCC(Oc2cc3c(Nc4cccc(Cl)c4F)ncnc3cc2OC)CC1 [SAPITINIB]
Kd (LIM domain kinase 2): > 30 µM (inactive) | Kd [1]: > 30 µM (inactive) | Kd [2]: > 30 µM (inactive) | Kd [3]: > 30 µM (inactive) | Kd [4]: > 30 µM (inactive)

Cc1cn(-c2cc(NC(=O)c3ccc(C)c(Nc4nccc(-c5cccnc5)n4)c3)cc(C(F)(F)F)c2)cn1 [NILOTINIB]
Kd [2]: > 30 µM (inactive)

Cc1cc(Nc2cc(N3CCN(C)CC3)nc(/C=C/c3ccccc3)n2)n[nH]1 [ENMD-2076]
Kd [1]: > 30 µM (inactive) | Kd [2]: > 30 µM (inactive) | Kd [3]: > 30 µM (inactive)

O=C(Nc1cccc(Cl)c1)Nc1ncc(CCNc2ncnc3ccsc23)s1 [SNS-314]
Kd (LIM domain kinase 2): > 30 µM (inactive) | Kd [1]: > 30 µM (inactive) | Kd [2]: > 30 µM (inactive) | Kd [3]: > 30 µM (inactive)

Cc1nc(N)sc1-c1ccnc(Nc2ccc(N3CCOCC3)cc2)n1 [CYC-116]
Kd (LIM domain kinase 2): 2.55 µM (active) | Kd [1]: 0.783 µM (active) | Kd [2]: > 30 µM (inactive)

COc1cc2nccc(Oc3ccc(NC(=O)NC4CC4)c(Cl)c3)c2cc1C(N)=O [LENVATINIB]
Kd (LIM domain kinase 2): > 30 µM (inactive) | Kd [1]: 2.81 µM (active) | Kd [2]: > 30 µM (inactive) | Kd [3]: > 30 µM (inactive)

COCCNCc1ccc(-c2cc3nccc(Oc4ccc(NC(=S)NC(=O)Cc5ccc(F)cc5)cc4F)c3s2)nc1 [GLESATINIB]
Kd (LIM domain kinase 2): > 30 µM (inactive) | Kd [1]: > 30 µM (inactive) | Kd [2]: > 30 µM (inactive) | Kd [3]: > 30 µM (inactive)

CCn1c(-c2nonc2N)nc2c(C#CC(C)(C)O)ncc(OC[C@H]3CCCNC3)c21 [GSK-690693]
Kd [1]: 2.7 µM (active) | Kd [2]: > 30 µM (inactive)

CN1CCN(c2ccc3nc(-c4c(N)c5c(F)cccc5[nH]c4=O)[nH]c3c2)CC1 [DOVITINIB]
Kd [1]: > 30 µM (inactive) | Kd [2]: > 30 µM (inactive)

Nc1nc(N)c2nc(-c3cccc(O)c3)c(-c3cccc(O)c3)nc2n1 [TG100-115]
Kd [1]: > 30 µM (inactive) | Kd [2]: 1.69 µM
